Literature values, collected in patent US6806274B1, “Quinazoline derivatives” (AstraZeneca UK Limited, priority 1999, dated 2004).

Target: EGF RTK (Homo sapiens, UniProt P00533)
Conditions: Bioorganic & Medicinal Chemistry Letters, 1997, 7, 2723-2728

Sequence of EGF RTK (P00533 25-1210): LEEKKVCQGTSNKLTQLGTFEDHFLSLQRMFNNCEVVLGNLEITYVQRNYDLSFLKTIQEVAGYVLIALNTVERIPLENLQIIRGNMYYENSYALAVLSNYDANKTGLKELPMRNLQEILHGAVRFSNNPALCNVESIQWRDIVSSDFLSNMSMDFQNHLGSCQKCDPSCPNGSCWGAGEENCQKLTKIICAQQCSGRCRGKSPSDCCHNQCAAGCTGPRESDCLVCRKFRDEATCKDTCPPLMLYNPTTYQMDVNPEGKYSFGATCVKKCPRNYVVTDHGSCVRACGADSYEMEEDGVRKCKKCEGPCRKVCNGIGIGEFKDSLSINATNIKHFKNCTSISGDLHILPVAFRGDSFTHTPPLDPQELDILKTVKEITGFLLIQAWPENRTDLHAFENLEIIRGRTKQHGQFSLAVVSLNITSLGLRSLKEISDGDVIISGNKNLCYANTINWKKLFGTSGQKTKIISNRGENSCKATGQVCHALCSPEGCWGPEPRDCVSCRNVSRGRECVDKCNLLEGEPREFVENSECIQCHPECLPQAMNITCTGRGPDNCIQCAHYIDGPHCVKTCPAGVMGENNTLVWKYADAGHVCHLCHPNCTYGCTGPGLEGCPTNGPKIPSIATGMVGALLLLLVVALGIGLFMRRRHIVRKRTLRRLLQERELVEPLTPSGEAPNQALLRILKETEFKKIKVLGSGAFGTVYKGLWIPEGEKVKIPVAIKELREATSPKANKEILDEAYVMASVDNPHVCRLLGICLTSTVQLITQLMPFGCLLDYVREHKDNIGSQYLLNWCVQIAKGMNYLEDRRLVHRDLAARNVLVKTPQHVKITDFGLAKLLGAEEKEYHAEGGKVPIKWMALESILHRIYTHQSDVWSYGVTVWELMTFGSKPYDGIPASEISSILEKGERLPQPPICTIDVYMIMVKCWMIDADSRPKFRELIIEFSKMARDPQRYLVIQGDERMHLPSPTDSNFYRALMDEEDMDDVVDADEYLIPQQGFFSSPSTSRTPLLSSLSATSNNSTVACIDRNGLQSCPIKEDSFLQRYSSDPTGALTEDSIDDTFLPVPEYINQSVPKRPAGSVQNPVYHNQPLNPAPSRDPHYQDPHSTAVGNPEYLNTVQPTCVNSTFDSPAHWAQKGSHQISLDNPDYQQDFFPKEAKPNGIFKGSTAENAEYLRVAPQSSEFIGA

- activity as an EGF RTK inhibitor: inactive
SMILES: COc1cc2ncnc(NC(=O)Nc3ccccc3)c2cc1OC [1-(6,7-dimethoxyquinazolin-4-yl)-3-phenylurea]
